Laboratory results from PubChem BioAssay AID2060906 (Molecular Pharmacology Branch, DTP, NCI, 2025).

Tested on: 485176-168-R4-J1-PDC complex spheroid growth
Assay: Anticancer human tumor 485176-168-R4-J1-PDC patient-derived pancreatic adenocarcinoma cell line growth inhibition [RAS]
Conditions: for IC50: curve of first compound; for viability, T/C: stronger effect = lower value; active means viability on the fitted dose curve at most 10% of control; inactive means the rest
Method in brief: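 Tumour cells grown as complex spheroids with HUVEC endothelial cells and mesenchymal stem cells, treated with RAS pathway inhibitor combinations. Each agent spans half-log steps from near clinical Cmax, or 10 microM where Cmax is unknown.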

[1] = second compound 0.00316 µM, first compound 0.00316 µM
[2] = second compound 0.00316 µM, first compound 0.01 µM
[3] = second compound 0.00316 µM, first compound 0.0316 µM
[4] = second compound 0.00316 µM, first compound 0.1 µM
[5] = second compound 0.00316 µM, first compound 0.316 µM
[6] = second compound 0.00316 µM, first compound 1 µM
[7] = second compound 0.01 µM, first compound 0.00316 µM
[8] = second compound 0.01 µM, first compound 0.01 µM
[9] = second compound 0.01 µM, first compound 0.0316 µM
[10] = second compound 0.01 µM, first compound 0.1 µM
[11] = second compound 0.01 µM, first compound 0.316 µM
[12] = second compound 0.01 µM, first compound 1 µM
[13] = second compound 0.0316 µM, first compound 0.00316 µM
[14] = second compound 0.0316 µM, first compound 0.01 µM
[15] = second compound 0.0316 µM, first compound 0.0316 µM
[16] = second compound 0.0316 µM, first compound 0.1 µM
[17] = second compound 0.0316 µM, first compound 0.316 µM
[18] = second compound 0.0316 µM, first compound 1 µM
[19] = second compound 0.1 µM, first compound 0.00316 µM
[20] = second compound 0.1 µM, first compound 0.01 µM
[21] = second compound 0.1 µM, first compound 0.0316 µM
[22] = second compound 0.1 µM, first compound 0.1 µM
[23] = second compound 0.1 µM, first compound 0.316 µM
[24] = second compound 0.1 µM, first compound 1 µM
[25] = second compound 0.316 µM, first compound 0.00316 µM
[26] = second compound 0.316 µM, first compound 0.01 µM
[27] = second compound 0.316 µM, first compound 0.0316 µM
[28] = second compound 0.316 µM, first compound 0.1 µM
[29] = second compound 0.316 µM, first compound 0.316 µM
[30] = second compound 0.316 µM, first compound 1 µM
[31] = second compound 1 µM, first compound 0.00316 µM
[32] = second compound 1 µM, first compound 0.01 µM
[33] = second compound 1 µM, first compound 0.0316 µM
[34] = second compound 1 µM, first compound 0.1 µM
[35] = second compound 1 µM, first compound 0.316 µM
[36] = second compound 1 µM, first compound 1 µM
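Further: spheroids exposed to compounds for seven days before readout.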
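Wherever viability, T/C is given: luminescence viability expressed relative to DMSO vehicle wells set as 100%.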

C=CC(=O)Nc1cc(Nc2nccc(-c3cn(C)c4ccccc34)n2)c(OC)cc1N(C)CCN(C)C + C=CC(=O)N1CCN(c2nc(OCC3CCCN3C)nc3c(F)c(-c4nc(N)cc(C)c4C(F)(F)F)c(Cl)cc23)C(C)C1
> 1000 nM: IC50 (second compound 0.00316 µM) | IC50 (second compound 0.01 µM) | IC50 (second compound 0.0316 µM) | IC50 (second compound 0.1 µM) | IC50 (second compound 0.316 µM) | IC50 (second compound 1 µM)
inactive: viability, T/C [1] 101% | viability, T/C [2] 111% | viability, T/C [3] 102% | viability, T/C [4] 100% | viability, T/C [5] 81.6% | viability, T/C [6] 75.6% | viability, T/C [7] 94.8% | viability, T/C [8] 102% | viability, T/C [9] 109% | viability, T/C [10] 104% | viability, T/C [11] 96.7% | viability, T/C [12] 67.8% | viability, T/C [13] 111% | viability, T/C [14] 122% | viability, T/C [15] 104% | viability, T/C [16] 99.7% | viability, T/C [17] 74.8% | viability, T/C [18] 73.9% | viability, T/C [19] 95.7% | viability, T/C [20] 94.2% | viability, T/C [21] 98.7% | viability, T/C [22] 104% | viability, T/C [23] 90.9% | viability, T/C [24] 52.5% | viability, T/C [25] 110% | viability, T/C [26] 102% | viability, T/C [27] 90.8% | viability, T/C [28] 101% | viability, T/C [29] 84.7% | viability, T/C [30] 66.9% | viability, T/C [31] 113% | viability, T/C [32] 99.6% | viability, T/C [33] 100% | viability, T/C [34] 81% | viability, T/C [35] 75.5% | viability, T/C [36] 57.9%

CC1(C)CCC(Nc2ncc(C(F)(F)F)c(-c3c[nH]c4c(P(C)(C)=O)c(C#N)ccc34)n2)CN1 (stereo unspecified) + C=CC(=O)N1CCN(c2nc(OCC3CCCN3C)nc3c(F)c(-c4nc(N)cc(C)c4C(F)(F)F)c(Cl)cc23)C(C)C1
94.4 nM: IC50 (second compound 1 µM)
> 300 nM: IC50 (second compound 0.00316 µM) | IC50 (second compound 0.0316 µM)
inactive: viability, T/C (second compound 0.00316 µM, first compound 0.000949 µM) 116% | viability, T/C (second compound 0.00316 µM, first compound 0.003 µM) 109% | viability, T/C (second compound 0.00316 µM, first compound 0.00949 µM) 85.6% | viability, T/C (second compound 0.00316 µM, first compound 0.03 µM) 60% | viability, T/C (second compound 0.00316 µM, first compound 0.0949 µM) 46.2% | viability, T/C (second compound 0.00316 µM, first compound 0.3 µM) 55.6% | viability, T/C (second compound 0.01 µM, first compound 0.000949 µM) 122% | viability, T/C (second compound 0.01 µM, first compound 0.003 µM) 98.9% | viability, T/C (second compound 0.01 µM, first compound 0.00949 µM) 75.7% | viability, T/C (second compound 0.01 µM, first compound 0.03 µM) 53.9% | viability, T/C (second compound 0.01 µM, first compound 0.0949 µM) 48.4% | viability, T/C (second compound 0.01 µM, first compound 0.3 µM) 48.1% | viability, T/C (second compound 0.0316 µM, first compound 0.000949 µM) 100% | viability, T/C (second compound 0.0316 µM, first compound 0.003 µM) 105% | viability, T/C (second compound 0.0316 µM, first compound 0.00949 µM) 81.5% | viability, T/C (second compound 0.0316 µM, first compound 0.03 µM) 59.5% | viability, T/C (second compound 0.0316 µM, first compound 0.0949 µM) 51% | viability, T/C (second compound 0.0316 µM, first compound 0.3 µM) 49.1% | viability, T/C (second compound 0.1 µM, first compound 0.000949 µM) 102% | viability, T/C (second compound 0.1 µM, first compound 0.003 µM) 84.8% | viability, T/C (second compound 0.1 µM, first compound 0.00949 µM) 80.4% | viability, T/C (second compound 0.1 µM, first compound 0.03 µM) 63.8% | viability, T/C (second compound 0.1 µM, first compound 0.0949 µM) 47.2% | viability, T/C (second compound 0.1 µM, first compound 0.3 µM) 47.8% | viability, T/C (second compound 0.316 µM, first compound 0.000949 µM) 92.7% | viability, T/C (second compound 0.316 µM, first compound 0.003 µM) 104% | viability, T/C (second compound 0.316 µM, first compound 0.00949 µM) 81% | viability, T/C (second compound 0.316 µM, first compound 0.03 µM) 52% | viability, T/C (second compound 0.316 µM, first compound 0.0949 µM) 52.1% | viability, T/C (second compound 0.316 µM, first compound 0.3 µM) 44.2% | viability, T/C (second compound 1 µM, first compound 0.000949 µM) 108% | viability, T/C (second compound 1 µM, first compound 0.003 µM) 106% | viability, T/C (second compound 1 µM, first compound 0.00949 µM) 82.8% | viability, T/C (second compound 1 µM, first compound 0.03 µM) 57% | viability, T/C (second compound 1 µM, first compound 0.0949 µM) 52.2% | viability, T/C (second compound 1 µM, first compound 0.3 µM) 46.9%
133 nM: IC50 (second compound 0.1 µM)
43.1 nM: IC50 (second compound 0.316 µM)
80.8 nM: IC50 (second compound 0.01 µM)

Nc1ccn(C2OC(CO)C(O)C2(F)F)c(=O)n1 (stereo unspecified) + C=CC(=O)N1CCN(c2nc(OCC3CCCN3C)nc3c(F)c(-c4nc(N)cc(C)c4C(F)(F)F)c(Cl)cc23)C(C)C1
17.5 nM: IC50 (second compound 0.0316 µM) | IC50 (second compound 1 µM)
inactive: viability, T/C [1] 89.7% | viability, T/C [2] 70.5% | viability, T/C [3] 12.2% | viability, T/C [7] 101% | viability, T/C [8] 81.4% | viability, T/C [9] 11.6% | viability, T/C [13] 84.2% | viability, T/C [14] 86% | viability, T/C [15] 13% | viability, T/C [19] 96.1% | viability, T/C [20] 86.2% | viability, T/C [21] 12.4% | viability, T/C [25] 98.1% | viability, T/C [26] 63.7% | viability, T/C [27] 13.7% | viability, T/C [31] 103% | viability, T/C [32] 85.2% | viability, T/C [33] 13%
13.7 nM: IC50 (second compound 0.316 µM)
16.8 nM: IC50 (second compound 0.01 µM)
active: viability, T/C [4] 7.74% | viability, T/C [5] 7.62% | viability, T/C [6] 8.54% | viability, T/C [10] 8.54% | viability, T/C [11] 7.95% | viability, T/C [12] 11.2% | viability, T/C [16] 6.18% | viability, T/C [17] 9.67% | viability, T/C [18] 8.77% | viability, T/C [22] 9.42% | viability, T/C [23] 8.72% | viability, T/C [24] 8.42% | viability, T/C [28] 7.48% | viability, T/C [29] 6.75% | viability, T/C [30] 9.71% | viability, T/C [34] 8.41% | viability, T/C [35] 9.99% | viability, T/C [36] 10.3%
15 nM: IC50 (second compound 0.00316 µM)
17.6 nM: IC50 (second compound 0.1 µM)
